Results published in patent publication US10173999B2, “Cyclic amine derivative and pharmaceutical use thereof” (Toray Industries, Inc., priority 2015, dated 2019).
Counter-ions that a name gives are not always drawn.

How the values were obtained:
[1] = system: mouse partial sciatic nerve ligation model (neuropathic pain); test: Mouse partial sciatic nerve ligation model (Seltzer model), von Frey test; type: in vivo; conditions: for persistence of analgesic action: oral administration, von Frey test at 1, 2, 3 h
Procedure: The mouse partial sciatic nerve ligation model was prepared in accordance with the method of Seltzer et al. (Malmberg et al., Pain, vol. 76, p. 215-222, 1998).
Slc: ICR mice (5 weeks old, male; from Japan SLC, Inc.) or Cr1: CD1 (ICR) mice (5 weeks old, male; from CHARLES RIVER LABORATORIES JAPAN, INC.) were anesthetized with sodium pentobarbital (70 mg/kg, intraperitoneal administration). The sciatic nerve at the femoral region of the right hind paw of each mouse was exposed and triply ligated tightly with silk suture of 8-0 (from NATSUME SEISAKUSHO CO., LTD.) under a stereomicroscope so that only half thickness of the nerve was trapped in the ligature. A group of mice thus treated was designated as a partial sciatic nerve ligation group. A group of mice whose sciatic nerve was just exposed and not ligated was designated as a sham surgery group.
Evaluation of neuropathic pain (hereinafter referred to as von Frey test) was performed as follows. Mice were conditioned for at least one hour in an acrylic cage for measurement (from NATSUME SEISAKUSHO CO. LTD. or SHINANO SEISAKUSHO) placed on a wire net. Thereafter, using a filament (from North Coast Medical or neuroscience) which exerted a pressure of 0.16 g, the mice were subjected to mechanical tactile stimulus by applying the filament to the plantar surface of the right hind paw 3 times, each for 3 seconds, with an interval of 3 seconds.
Seven days after the sciatic nerve ligation surgery, the compound of Example 1, 2, 3, 4, 5, 7, 8, 9, 10, 11, 12 or 13 (10 mg/kg for each of the compounds of Example 1, 2, 3, 4, 5, 8, 10 and 13, 0.01 to 1 mg/kg for the compound of Example 7, 0.01 to 10 mg/kg for the compound of Example 9; 0.001 to 0.1 mg/kg for the compound of Example 11; and 0.01 to 1 mg/kg for the compound of Example 12) or pregabalin as a positive control (10 mg/kg; Bosche Scientific) was dissolved in distilled water and orally administered to mice of the partial sciatic nerve ligation group. The groups of the mice in the partial sciatic nerve ligation mouse to which the compound of Example 1, 2, 3, 4, 5, 7, 8, 9, 10, 11, 12 or 13 was administered were designated as a “partial sciatic nerve ligation+the compound of Example 1” group; a “partial sciatic nerve ligation+the compound of Example 2” group; a “partial sciatic nerve ligation+the compound of Example 3” group; a “partial sciatic nerve ligation+the compound of Example 4” group; a “partial sciatic nerve ligation+the compound of Example 5” group; a “partial sciatic nerve ligation+the compound of Example 7” group; a “partial sciatic nerve ligation+the compound of Example 8” group; a “partial sciatic nerve ligation+the compound of Example 9” group; a “partial sciatic nerve ligation+the compound of Example 10” group; a “partial sciatic nerve ligation+the compound of Example 11” group; a “partial sciatic nerve ligation+the compound of Example 12” group; and a “partial sciatic nerve ligation+the compound of Example 13” group, respectively. The partial sciatic nerve ligation mouse group to which pregabalin was administered was designated as a “partial sciatic nerve ligation+pregabalin” group. A group wherein distilled water was orally administered to the mice of the partial sciatic nerve ligation group was designated as a “partial sciatic nerve ligation+distilled water” group. A group wherein distilled water was orally administered to the mice of the sham surgery group was designated as a “sham surgery+distilled water” group.
The von Frey test was carried out before oral administration of a test compound (pre-value), one hour, two hours, and three hours after the oral administration of a test compound.
Slc: ICR mice (5 weeks old, male; Japan SLC, Inc.) were anesthetized with sodium pentobarbital (70 mg/kg, intraperitoneal administration).

[2] = system: human aortic smooth muscle cells (T/G HA-VSMG); test: Inducibility of cytoplasmic vacuolation in human aortic smooth muscle cells; type: cell-based; conditions: Treatment time: 24 hours
Procedure: As a test compound, the compound of Example 3, 9, 11, 12 or compounds of Comparative Examples 2 to 6 were used. Canine aortic smooth muscle cells (Canine Aortic Smooth Muscle Cells, supply source: Toyobo Co., Ltd.) or human aortic smooth muscle cells of (T/G HA-VSMG, supply source: ATCC) were treated with a test compound (1.0 or 1.2 mmol/L in concentration) for 24 hours or 2 weeks. The cells were stained with HE, immunohistochemically for LAMP-2 or toluidine blue, and thereafter the presence or absence of cytoplasmic vacuolation was determined by using an optical microscope.

[3] = system: fibromyalgia syndrome model rats; test: Rat fibromyalgia syndrome model (acidic saline), allodynia by von Frey filament; type: in vivo; conditions: Day 7, pregabalin 10 mg/kg
Procedure: To prepare a fibromyalgia syndrome model rat (Sluka et al., Journal of Pharmacology and Experimental Therapeutics, vol. 302, p. 1146-1150, 2002; Nagakura et al., Pain, vol. 146, p. 26-33, 2009; Sluka et al., Pain, vol. 146, p. 3-4, 2009), which is generally employed widely in basic research for fibromyalgia syndrome, acidic saline (100 μL) adjusted to pH 4.0 was intramuscularly injected to the gastrocnemius muscle of the right hind paw of Crl: CD(SD) rat (6 to 7 weeks old, male; from CHARLES RIVER LABORATORIES JAPAN, INC.) under continuous inhalation anesthesia with isoflurane, twice (once in each day of Day 1 and Day 6, wherein Day 1 was the date on which the acidic saline was initially administrated). The rats thus prepared were raised in a breeding room controlled at an indoor temperature of 21 to 25° C. and an indoor humidity of 40 to 70% under the conditions of voluntary intake of food and water. In the same manner, rats to which physiological saline in place of acidic saline was intramuscularly injected were raised. The rats thus raised and not afflicted with fibromyalgia syndrome (“physiological saline+distilled water” group in FIG. 13) were also used in the experiment.
Seven days after the initial administration of acidic saline, allodynia in each rat was measured. […] Note that, measurement of allodynia was performed by use of a von Frey filament (from North Coast Medical) in accordance with the method described in a known literature (Chaplan et al., Journal of Neuroscience Methods, vol. 53, p. 55-63, 1994).
The fibromyalgia syndrome model rats thus obtained are divided into groups such that the 50% response threshold (mean value of the right hind paw and the left hind paw) of the individual groups became equal, and a test compound was administered to the fibromyalgia syndrome model rats on Day 7 after the initial administration of acidic saline.
The compound of Example 11 (0.1 to 10 mg/kg) was dissolved in distilled water and then orally administered to fibromyalgia syndrome model rats (“acidic saline+the compound of Example 11” in FIG. 13). Pregabalin serving as a positive control (10 mg/kg; from KEMPROTEC) was dissolved in distilled water and then orally administered (“acidic saline+pregabalin” in FIG. 13). As a control, distilled water was orally administered to fibromyalgia syndrome model rats (“acidic saline+distilled water” in FIG. 13). Furthermore, distilled water was orally administered to rats not afflicted with fibromyalgia syndrome (“physiological saline+distilled water” in FIG. 13). One hour and three hours after the oral administration, allodynia in individual rats was measured to evaluate an analgesic action. At this time, the 50% response threshold value in the measurement of allodynia before oral administration of the test compound on Day 7 after initial administration of acidic saline was defined as the pre-value.
To prepare a fibromyalgia syndrome model rat (Sluka et al., Journal of Pharmacology and Experimental Therapeutics, vol. 302, p. 1146-50, 2002; Nagakura et al., Pain, vol. 146, p. 26-33, 2009; Sluka et al., Pain, vol. 146, p. 3-4, 2009), which is generally employed widely in basic research for fibromyalgia syndrome, acidic saline (100 μL) adjusted to pH 4.0 was intramuscularly injected to the gastrocnemius muscle of the right hind paw of Slc: (SD) rats (6 to 7 weeks old, male; from Japan SLC, Inc.) under continuous inhalation anesthesia with isoflurane, twice (once in each of Day 1 and Day 6, wherein Day 1 was the initial administration date of the acidic saline). The rats thus prepared were raised in a breeding room controlled at an indoor temperature of 21 to 25° C. and an indoor humidity of 40 to 70% under the conditions of voluntary intake of food and water. In the same manner, rats to which physiological saline was intramuscularly injected in place of acidic saline were raised. […]

[4] = oral, 7 days after ligation, 1-3 h after dosing, 10 mg/kg (Ex 1,2,3,4,5,8,10,13, pregabalin), 0.01-1 mg/kg (Ex 7,12), 0.01-10 mg/kg (Ex 9), 0.001-0.1 mg/kg (Ex 11), vs ligation+distilled water, Welch or Shirley-Williams test

| SMILES | analgesic action in von Frey test (total score) [1, 4] | other results |
| --- | --- | --- |
| CCN(C)C1CCN(C(=O)CC(O)c2nccn2C)CC1 (centres unmarked) [Example 1, 1-(4-(ethylmethylamino)piperidin-1-yl)-3-hydroxy-3-(1-methyl-1H-imidazol-2-yl)propan-1-one] | statistically significant analgesic action |  |
| CCN(CC)C1CCN(C(=O)CC(O)c2nccn2C)CC1 (centres unmarked) [Example 2, 1-(4-(diethylamino)piperidin-1-yl)-3-hydroxy-3-(1-methyl-1H-imidazol-2-yl)propan-1-one] | statistically significant analgesic action |  |
| CN1CCN(C2CCN(C(=O)CC(O)c3nccn3C)CC2)CC1 (centres unmarked) [Example 3, 3-hydroxy-3-(1-methyl-1H-imidazol-2-yl)-1-(4-(4-methylpiperazin-1-yl)piperidin-1-yl)propan-1-one] | statistically significant analgesic action | Inducibility of cytoplasmic vacuolation ([2]; Concentration: 1.2 mmol/L): Absent |
| CN(C)[C@@H]1CCCN(C(=O)CC(O)c2nccn2C)C1 (some centres unmarked) [Example 4] | statistically significant analgesic action |  |
| CN(C)[C@@H]1CCN(C(=O)CC(O)c2nccn2C)C1 (stereo partly drawn) [Example 5, 1-((R)-3-(dimethylamino)pyrrolidin-1-yl)-3-hydroxy-3-(1-methyl-1H-imidazol-2-yl)propan-1-one] | statistically significant analgesic action |  |
| CN(C)C1CCN(C(=O)CC(O)c2nccn2C)CC1 (centres unmarked) [Example 7, 1-(4-(dimethylamino)piperidin-1-yl)-3-hydroxy-3-(1-methyl-1H-imidazol-2-yl)propan-1-one hydrochloride] |  | analgesic action in von Frey test (total score) ([1]; mouse, in vivo): statistically significant analgesic action; persistence of analgesic action [1]: persistence of analgesic action was confirmed |
| CCn1ccnc1C(O)CC(=O)N1CCC(N(C)C)CC1 (centres unmarked) [Example 8, 1-(4-(dimethylamino)piperidin-1-yl)-3-(1-ethyl-1H-imidazol-2-yl)-3-hydroxypropan-1-one] | statistically significant analgesic action |  |
| CN(C)C1CCN(C(=O)CC(O)c2nccn2CC(F)(F)F)CC1 (centres unmarked) [Example 9, 1-(4-(dimethylamino)piperidin-1-yl)-3-hydroxy-3-(1-(2,2,2-trifluoroethyl)-1H-imidazol-2-yl)propan-1-one] | statistically significant analgesic action | Inducibility of cytoplasmic vacuolation ([2]; Concentration: 1.2 mmol/L): Absent; persistence of analgesic action [1]: persistence of analgesic action was confirmed |
| CN(C)C1CCN(C(=O)CC(O)c2nccn2C(F)F)CC1 (centres unmarked) [Example 10, 3-(1-(difluoromethyl)-1H-imidazol-2-yl)-1-(4-(dimethylamino)piperidin-1-yl)-3-hydroxypropan-1-one] | statistically significant analgesic action |  |
| CC(=O)OC(CC(=O)N1CCC(N(C)C)CC1)c1nccn1C (centres unmarked) [Example 12, 3-(4-(dimethylamino)piperidin-1-yl)-1-(1-methyl-1H-imidazol-2-yl)-3-oxopropyl acetate] | statistically significant analgesic action | Inducibility of cytoplasmic vacuolation ([2]; Concentration: 1.0 mmol/L): Absent; persistence of analgesic action [1]: persistence of analgesic action was confirmed |
| CCCCC(=O)OC(CC(=O)N1CCC(N(C)C)CC1)c1nccn1C (centres unmarked) [Example 13, 3-(4-(dimethylamino)piperidin-1-yl)-1-(1-methyl-1H-imidazol-2-yl)-3-oxopropylpentanoate] | statistically significant analgesic action |  |
| CC(C)C[C@H](CN)CC(=O)O [pregabalin] |  | allodynia (50% response threshold) vs acidic saline+distilled water group ([3]; Comparative Example 8: oral, Comparative Example 1 0.1 to 1 mg/kg, 1, 2 and 3 h after dosing): statistically significantly improved; allodynia (50% response threshold) vs acidic saline+distilled water group ([3]; Example 15: oral, Example 11 0.1 to 10 mg/kg, 1 and 3 h after dosing): statistically significantly improved; analgesic action in von Frey test (total score) ([1]; mouse, in vivo): statistically significant analgesic action |
